According to patent US5354862A, “Preparation and the use of halopropargylated cyclic quaternary ammonium compounds as antimicrobial agents” (Rohm and Haas Company, priority 1993, dated 1994):
≈ marks a conversion by molar mass, not a printed value. Read-outs that look alike come from different tables or passages of the source.

What was measured:
[1] = tested on: Staphylococcus aureus; experiment: Broth two-fold serial dilution MIC test; assay type: cell-based, Staphylococcus aureus (ATCC 6538)
How it was run: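 Broth two-fold serial dilution from 500 ppm down to 0.25 ppm, compound delivered from acetone/methanol/water stock, inoculated with standardized cell suspension and incubated at an organism-appropriate temperature. MIC is the lowest concentration giving complete growth inhibition.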

[2] = tested on: Proteus mirabilis; experiment: MIC test, side-by-side comparison; assay type: cell-based; settings: Table 4 side-by-side, P. mirabilis; for MIC: Proteus mirabilis
Excerpt: (§1) A minimum inhibitory concentration (MIC) value is obtained using a broth, two-fold serial dilution test performed as follows: A stock solution or dispersion of the test compound, typically at a concentration of 1%, is made in a 5:3:2 solvent solution of acetone. methanol, and water. A volume of the stock solution is dispensed into culture media to give an initial starting test concentration of 500 ppm compound.
(§2) When the test is ready to be done, each vessel in the dilution series, except the first vessel, contains an equal volume of compound free broth. The first vessel contains twice the volume of broth with the starting concentration of test compound. One half of the broth from the first vessel is transferred to the second vessel- After being mixed, one half the resulting volume is removed from the second vessel and transferred to the third vessel. The entire cycle is repeated sufficiently to give a series of concentrations amounting to 500, 250, 125, 63, 31, 16, 8, and 4, 2, 1, 0.5, 0.25 ppm respectively.
(§3) Each vessel is then inoculated with a cell suspension of the appropriate test organism. Bacteria are grown in broth, fungi on agar slants for a time and at a temperature appropriate to the species being tested, and algae are a mixture of green algae and blue-green bacteria grown in a nutrient media. At the end of the growth period, in the case of bacteria, the broth is vortexed to disperse the cells.
(§4) In the case of fungi, the spores are harvested by pipetting water onto the slant and dislodging the spores with a sterile loop. The cell/spore suspension is standardized by controlling incubation time, temperature, and the volume of the diluent. The suspension is then used to inoculate the vessels containing the broth compound.
(§5) The vessels are then incubated at the appropriate temperature. After the incubation, the vessels are examined for growth/no growth. The minimum inhibitory concentration (MIC) is defined as the lowest concentration of compound that results in complete inhibition of growth of the test organism.
(§6) These five compounds were tested side-by-side against six organisms, Pseudomonas aeruginosa (P. aeruginosa), Klebsiella pneurnoniae (K. pneumoniae), Enterobacter aerogenes (E. aerogenes), Proteus mirabilis (P. mirabilis), Staphylococcus aureus (S. aureus), and Aspergillus niger (A. niger). The MIC tests were performed as in example 6.

[3] = tested on: Enterobacter aerogenes; experiment: MIC test, side-by-side comparison; assay type: cell-based; settings: Table 4 side-by-side, E. Aerogenes; for MIC: Klebsiella aerogenes
Excerpt: as §1, §2, §3, §4, §5, §6

[4] = tested on: Klebsiella pneurnoniae; experiment: MIC test, side-by-side comparison; assay type: cell-based; settings: for MIC: read-out: MIC Values
Excerpt: as §1, §2, §3, §4, §5, §6

[5] = tested on: Aspergillus niger; experiment: Broth two-fold serial dilution MIC test; assay type: cell-based, Aspergillus niger (ATCC 6275)
How it was run: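 Two-fold broth serial dilution from 500 ppm down to 0.25 ppm, compound stock in acetone/methanol/water 5:3:2. Vessels inoculated with standardized spore suspension harvested from agar slants, incubated at a species-appropriate temperature, then scored for growth/no growth. MIC is the lowest concentration giving complete growth inhibition.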

[6] = tested on: Pseudomonas aeruginosa; experiment: Broth two-fold serial dilution MIC test; assay type: cell-based, Pseudomonas aeruginosa (ATCC 15442)
How it was run: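 Broth two-fold serial dilution MIC (500 to 0.25 ppm) was run against Pseudomonas aeruginosa, with compound from 1% stock in acetone/methanol/water 5:3:2. Vessels inoculated with standardized broth-grown cells were incubated, then scored for growth. MIC is the lowest concentration giving complete growth inhibition.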

[7] = tested on: Escherichia coli; experiment: Broth two-fold serial dilution MIC test; assay type: cell-based, Escherichia coli (ATCC 11229); settings: Table 2, Ecol
How it was run: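 Broth two-fold serial dilutions ran from 500 down to 0.25 ppm, prepared from a stock in acetone/methanol/water (5:3:2). Each tube received a standardized bacterial suspension and was incubated at a temperature suited to the species. MIC is the lowest concentration giving complete growth inhibition.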

[8] = Staphylococcus aureus, Table 4 side-by-side, S. aureus, read-out: MIC Values
[9] = Aspergillus niger, Table 4 side-by-side, A. niger, read-out: MIC Values
[10] = Pseudomonas aeruginosa, Table 4 side-by-side, P. aeruginosa, read-out: MIC Values
[11] = Staphylococcus aureus, Table 2, Saur, M9G media, read-out: MIC
[12] = Staphylococcus aureus, Table 2, Saur, TSB media, read-out: MIC
[13] = Aspergillus niger, Table 2, Anig, TSB media, read-out: MIC
[14] = Pseudomonas aeruginosa, Table 2, Psae, M9G media, read-out: MIC
[15] = Pseudomonas aeruginosa, Table 2, Psae, TSB media, read-out: MIC
[16] = Escherichia coli, TSB media, read-out: MIC

SMILES	MIC ([1]; Table 2, Saur, TSB media) [ppm]	MIC ([5]; Table 2, Anig, TSB media) [ppm]	MIC ([6]; Table 2, Psae, M9G media) [ppm]	MIC ([6]; Table 2, Psae, TSB media) [ppm]	MIC ([7]; M9G media) [ppm]	MIC ([7]; TSB media) [ppm]	MIC [1, 11] [µg/mL]	MIC [1, 12] [µg/mL]	MIC [5, 13] [µg/mL]	MIC [6, 14] [µg/mL]	MIC [6, 15] [µg/mL]	MIC [1, 8] [µg/mL]	MIC [2] [µg/mL]	MIC [3] [µg/mL]	MIC [4] [µg/mL]	MIC [5, 9] [µg/mL]	MIC [6, 10] [µg/mL]	MIC ([1]; Table 2, Saur, M9G media) [ppm]	other results
IC#CCN1CCOCC1 [Compound J2, N-(3-iodo-2-propynyl)-morpholine, reference compound]	–	–	–	–	–	–	–	–	–	–	–	250 (≈ 996 µM)	500 (≈ 1990 µM)	250 (≈ 996 µM)	500 (≈ 1990 µM)	8 (≈ 31.9 µM)	> 500	–	–
CCCCCCCCCCCCCC[N+]1(CC#CI)CCOCC1 [Compound 41, 4-tetradecyl-4-(3-iodoprolyargyl)-morpholinium benzenesulfonate]	0.5	2	2	4	< 0.25	< 0.25	–	–	–	–	–	0.5	4	2	4	8	8	< 0.25	–
CCCCCCCCCCCCCC[N+]1(CC#CI)CCCCC1 [Compound 25, 1-(tetradecyl)-1-(3-iodopropargyl)-piperidinium 4-methylbenzenesulfonate]	0.25	8	8	2	2	16	–	–	–	–	–	0.5	4	1	4	8	8	0.25	–
IC#CCN1CCCCC1 [Compound J1, N-(3-iodo-2-propynyl)-piperidine, reference compound]	–	–	–	–	–	–	–	–	–	–	–	125 (≈ 502 µM)	125 (≈ 502 µM)	32 (≈ 128 µM)	125 (≈ 502 µM)	16 (≈ 64.2 µM)	> 500	–	–
CCCCCCCCCCCCCC[N+]1(CC#CI)CCOCC1 [Compound 42, 4-tetradecyl-4-(3-iodopropargyl)-morpholinium methanesulfonate]	0.5	1	1	4	< 0.25	< 0.25	–	–	–	–	–	–	–	–	–	–	–	< 0.25	MIC Values ([1]; Table 4 side-by-side, S. aureus): 1 ppm; MIC Values [2]: 4 ppm; MIC Values [3]: 1 ppm; MIC Values ([4]; Table 4 side-by-side, K. Pneumoniae): 4 ppm; MIC Values ([5]; Table 4 side-by-side, A. niger): 8 ppm; MIC Values ([6]; Table 4 side-by-side, P. aeruginosa): 16 ppm
OCCCCCCC[N+]1(CC#CI)CCCCC1 [Compound 24, 1-(7-hydroxyheptyl)-1-(3-iodopropargyl)-piperidinium-4methylbenzenesulfonate]	–	–	–	–	–	–	63	500	> 500	> 500	> 500	–	–	–	–	–	–	–	MIC [7, 16]: > 500 µg/mL
CCCCCCCCCCCCOC(=O)C[N+]1(CC#CI)CCOCC1 [Compound 68, 4-(dodecyloxycarbonyl)methyl-4-(3-iodopropargyl)-morpholinium 4-methylbenzenesulfonate]	–	–	–	–	–	–	0.5	2	16	32	64	–	–	–	–	–	–	–	MIC ([7]; Escherichia coli, M9G media, read-out: MIC): 2 µg/mL; MIC [7, 16]: 8 µg/mL
OCC[N+]1(CC#CI)CCCCC1 [Compound 18, 1-(2-hydroxyethyl)-1-(3-iodopropargyl)-piperidinium 4-methylbenzenesulfonate]	–	–	–	–	–	–	16	32	250	250	125	–	–	–	–	–	–	–	MIC [7, 16]: 250 µg/mL
CCCCCCCCCCCC[N+]1(CC#CI)CCCC1 [Compound 37, 1-dodecyl-1-(3-iodopropargyl)-pyrrolidinium methanesulfonate]	0.5	0.25	63	125	2	16	–	–	–	–	–	–	–	–	–	–	–	0.5	–

Continued, in another order:

MIC ([1]; Table 2, Saur, TSB media) [ppm]	MIC ([5]; Table 2, Anig, TSB media) [ppm]	MIC ([6]; Table 2, Psae, M9G media) [ppm]	MIC ([6]; Table 2, Psae, TSB media) [ppm]	MIC ([7]; M9G media) [ppm]	MIC ([7]; TSB media) [ppm]	MIC [1, 11] [µg/mL]	MIC [1, 12] [µg/mL]	MIC [5, 13] [µg/mL]	MIC [6, 14] [µg/mL]	MIC [6, 15] [µg/mL]	SMILES	MIC [1, 8] [µg/mL]	MIC [2] [µg/mL]	MIC [3] [µg/mL]	MIC [4] [µg/mL]	MIC [5, 9] [µg/mL]	MIC [6, 10] [µg/mL]	MIC ([1]; Table 2, Saur, M9G media) [ppm]	other results
< 0.25	0.5	8	8	2	2	–	–	–	–	–	CCCCCCCCCCCCCCCC[N+]1(CC#CI)CC(C)OC(C)C1 (stereo not drawn) [Compound 47, 4-hexadecyl-4-(3-iodopropargyl)-2,6-dimethylmorpholinium benzenesulfonate]	–	–	–	–	–	–	< 0.25	–
1	–	8	250	4	32	< 0.25	–	< 0.25	–	–	CCCCCCCCCCCCCCC[N+]1(CC#CI)CCCC1 [Compound 10, 1-pentadecyl-1-(3-iodopropargyl)-pyrrolidinium 4-methylbenzenesulfonate]	–	–	–	–	–	–	–	–
8	1	125	125	4	16	–	–	–	–	–	CCCCCCCCCCCCCC[N+]1(CC#CI)CCCCC1C (stereo not drawn) [Compound 55, 1-(tetradecyl)-1-(3-iodopropargyl)-2-methylpiperidinium methanesulfonate]	–	–	–	–	–	–	1	–
–	2	–	–	8	8	< 0.25	< 0.25	–	16	16	CCCCCCCCCCCCCCCC[N+]1(CC#CI)CC(C)OC(C)C1 (stereo not drawn) [Compound 46, 4-hexadecyl-4-(3-iodopropargyl)-2,6-dimethylmorpholinium 4-methylbenzenesulfonate]	–	–	–	–	–	–	–	–
